Reference: patent US20140163067A1, “Methods of Treatment of Limited Cognitive Impairment” (ENVIVO PHARMACEUTICALS, INC., priority 2011, published 2014)

System: subjects suffering from LCI
Test: Sensory electrophysiological responses (P50 gating, MMN, P300, N100) in LCI subjects
Assay type: in vivo, human
Settings: compared with placebo, effects expected at a daily dose as low as 0.3 mg, dosed daily for 20 days
Method: These effects are expected at a daily dose as low as 0.3 mg of (R)-7-chloro-N-(quinuclidin-3-yl)benzo[b]thiophene-2-carboxamide hydrochloride.
Impairment of the ability of central nervous system to inhibit irrelevant sensory information has long been used as a model for understanding the deficits of attention seen in subjects. Two approaches to the measurement of this ability have commonly been employed (see (Heinrichs, 2004; Potter et al., 2006; Turetsky et al., 2007; Umbricht and Krljes, 2005) for reviews and meta-analyses): (1) the sensory gating paradigm in which the presentation of one stimulus normally suppresses the response elicited by a stimulus which rapidly follows it; and (2) the oddball or orienting paradigm in which a rare or unexpected event elicits a diminished response in subjects because attentional resources are inappropriately focused on less salient aspects of the environment.
Two responses are commonly used assess brain activity: (1) the auditory P50 response elicited by the second member of a pair of clicks; and (2) the mismatch negativity (MMN) or N2 response evoked by a rarely occurring pure tone of no instructed relevance to the subject. Abnormalities in both P50 gating and the MMN have been reported in schizophrenic subjects. […]

Cl.O=C(N[C@H]1CN2CCC1CC2)c1cc2cccc(Cl)c2s1 [(R)-7-chloro-N-(quinuclidin-3-yl)benzo[b]thiophene-2-carboxamide hydrochloride]
sensory electrophysiological responses which correlate with improved cognitive and functional performance: can improve sensory electrophysiological responses
